Patent publication US20080004348A1, “Naphthalene compounds” (LES LABORATOIRES SERVIER, priority 2006, published 2008)
pKi: −log10 of the molar value.

Assays:
[1] = target: MT1 receptor (Homo sapiens, UniProt P48039); assay: Melatonin MT1 receptor binding study, 2-[125I]-iodomelatonin; details: 2-[125I]-iodomelatonin radioligand
Method: (§1) The MT1 or MT2 receptor binding experiments are carried out using 2-[^125I]-iodomelatonin as reference radioligand. The radioactivity retained is determined using a liquid scintillation counter.
(§2) Competitive binding experiments are then carried out in triplicate using the various test compounds. A range of different concentrations is tested for each compound. The results enable the binding affinities of the compounds tested (Ki) to be determined.

[2] = target: T1, human 5-HT2C receptor (Homo sapiens, UniProt P28335); assay: Serotoninergic 5-HT2C receptor binding study, [3H]-mesulergine; details: membranes from CHO cells expressing human 5-HT2C
T1 construct: expressed in transfected cells
T1 sequence (P28335 33-458): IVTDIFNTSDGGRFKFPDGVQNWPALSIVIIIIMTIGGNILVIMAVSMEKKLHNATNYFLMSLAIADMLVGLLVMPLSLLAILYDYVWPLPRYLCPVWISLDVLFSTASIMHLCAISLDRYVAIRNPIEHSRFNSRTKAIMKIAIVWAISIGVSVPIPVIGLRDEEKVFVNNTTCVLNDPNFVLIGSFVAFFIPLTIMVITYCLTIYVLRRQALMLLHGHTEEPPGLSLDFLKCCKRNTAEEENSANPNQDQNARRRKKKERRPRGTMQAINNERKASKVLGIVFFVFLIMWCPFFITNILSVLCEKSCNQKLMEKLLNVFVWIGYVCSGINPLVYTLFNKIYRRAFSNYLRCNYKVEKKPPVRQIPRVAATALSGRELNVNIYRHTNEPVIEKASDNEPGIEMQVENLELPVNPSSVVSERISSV
Method: The affinity of the compounds for the human 5-HT2C receptor is evaluated on membrane preparations from CHO cells stably expressing that receptor.
Incubation is carried out in 50mM TRIS buffer, pH 7.4 containing 10 mM MgCl2 and 0.1% BSA, in the presence of [^3H]-mesulergine (InM) and 25 fmol/ml of receptor. Non-specific binding is determined in the presence of 10 μM mianserin.
The reaction is stopped by the addition of 50 mM TRIS buffer, pH 7.4 followed by a filtration step and 3 successive rinses: the radioactivity bound to the membranes remaining on the filters (GF/B pretreated with 0.1% PEI) is determined by liquid scintillation counting.

[3] = target: T2, MT2 receptor (Homo sapiens, UniProt P49286); assay: Melatonin MT2 receptor binding study, 2-[125I]-iodomelatonin; details: 2-[125I]-iodomelatonin radioligand
T2 sequence (P49286 1-362): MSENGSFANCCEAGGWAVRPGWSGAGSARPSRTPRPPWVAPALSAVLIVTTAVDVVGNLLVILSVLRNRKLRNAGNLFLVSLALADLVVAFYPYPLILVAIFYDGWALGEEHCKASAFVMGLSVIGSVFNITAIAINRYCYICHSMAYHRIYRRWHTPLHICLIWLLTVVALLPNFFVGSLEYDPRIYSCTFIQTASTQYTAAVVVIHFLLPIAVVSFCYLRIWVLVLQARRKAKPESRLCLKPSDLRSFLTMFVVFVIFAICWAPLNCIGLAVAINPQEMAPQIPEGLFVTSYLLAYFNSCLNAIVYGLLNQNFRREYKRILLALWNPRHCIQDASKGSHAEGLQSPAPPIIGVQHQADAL
Method: as §1, §2

Chain of MT1 receptor (P48039 whole entry): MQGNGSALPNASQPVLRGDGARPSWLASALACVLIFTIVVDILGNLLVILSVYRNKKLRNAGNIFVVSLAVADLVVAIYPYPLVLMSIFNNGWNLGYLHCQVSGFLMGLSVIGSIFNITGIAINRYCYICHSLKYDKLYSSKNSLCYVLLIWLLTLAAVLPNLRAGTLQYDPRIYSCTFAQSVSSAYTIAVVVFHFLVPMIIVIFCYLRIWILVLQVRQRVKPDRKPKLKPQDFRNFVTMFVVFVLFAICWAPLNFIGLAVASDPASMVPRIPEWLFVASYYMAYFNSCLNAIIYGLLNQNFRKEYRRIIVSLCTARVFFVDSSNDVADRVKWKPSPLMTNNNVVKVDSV

COCC(CNC(C)=O)c1cccc2ccc(OC)cc12 (stereo not drawn) [Example 6, N-[3-Methoxy-2-(7-methoxy-1-naphthyl)propyl]acetamide]
pKi [1]: 8.31 | pKi [2]: 4.59 | pKi [3]: 8.05
